How the values were obtained:
1α-hydroxylase mRNA = 1α-hydroxylase mRNA expression in CL-8 cells (real-time quantitative PCR); assay type: cell-based, human
Experimental: Cell culture, RNA preparation and cDNA synthesis: CL-8 cells (1.6×10^6 cells) were placed in 60 mm culture dish, and cultured for 48 hours in 5% FCS D-MEM/HamF-12(1:1) medium. This medium was exchanged to FCS free, 0.5 mM Ca defined medium [D-MEM/HamF-12 (13:87), Insulin 5 μg/ml, Transferrin 5 μg/ml, Na2SeO3 5 ng/ml, T3 0.37 nM, EGF 2.5 ng/ml, Hydrocortisone 1 nM]. After 24 hours, the peptide of SEQ ID NO.1 (100 ng/ml or 500 ng/ml) or PTH 100 nM were added and cultured for 5 hours. After treatment, the total cellular contents of each well were used for RNA extraction and reverse transcription (RT). RNA was isolated using ISOGEN (Nippon Gene, Japan) according to the manufacturer's protocol. The purified RNA was redissolved in 10 μl RNase-free water and used for cDNA synthesis by RT. The RT was performed in a 20 μl reaction mixture containing 10 mM Tris buffer, pH8.3, 50 mM KCl, 5 mM MgCl2, 1 mM each of dATP, dGTP, dCTP and dTTP, 20 U of RNase inhibitor, 1 μM Reverse primer and 5 U of AMV reverse transcriptase. The reaction mixture was incubated at 30° C. for 10 min, 55° C. for 15 min, 95° C. for 5 min followed by 5° C. for 5 min.
Real-time quantitative PCR: mRNA was quantitated for human 1α-OHase gene and β-actin. Theses gene were amplified using primers of oligo synthesis DNA (Takara, Japan). […] Quantitation of mRNA was performed using Applied Biosystems GeneAmp 5700 sequence detection system with SYBR Green methods.
In order to study the effect of the peptide of SEQ ID No. 1 on the regulation of 1α-hydoxylase mRNA expression, CL-8 cells were grown with and without the peptide of SEQ ID No. 1 and the effects of the peptide on 1α-hydroxylase were quantified. […]
PTH and the peptide of SEQ ID NO.1 induce the expression of 1α-hydroxylase mRNA. […] Cells were grown for a further 5 hours, and RNA was harvested and expression levels of 1α-hydroxylase were determined in each sample using standard Northern blotting or RT-PCR procedures.

24-hydroxylase mRNA = 24-hydroxylase mRNA expression in CL-8 cells; assay type: cell-based; settings: 1α,25-dihydroxyvitamin D3 10^−9 M, 5 hours (FIG. 4)
Experimental: CL-8 cells were grown as above and the peptide of SEQ ID NO.1 was either not added to the cells, or added to the cells at a concentration of either 100 or 500 ng/ml. Cells were grown for a further 5 hours, and RNA was harvested using methods described above and expression levels of 24-hydroxylase were determined in each sample using methods described above. […]

For `O=S(=O)(NCCNC/C=C/c1ccc(Br)cc1)c1cccc2cnccc12` [H-89], which “effect of H-89 on the inducing effects of PTH on 1α-hydroxylase mRNA expression” value (1α-hydroxylase mRNA; H-89 10 uM with PTH 100 nmol, 5 hours (FIG. 2)) is on record?
The value was “inhibited”.

What about the “effect of H-89 on the stimulatory effects of the peptide of SEQ ID NO.1 on 1α-hydroxylase mRNA expression” value (1α-hydroxylase mRNA; H-89 10 uM with peptide 100 or 500 ng/ml, 5 hours) of the same molecule?
Its value is “did not inhibit”.

With `C=C1/C(=C\C=C2/CCC[C@]3(C)[C@@H]([C@H](C)CCCC(C)(C)O)CC[C@@H]23)C[C@@H](O)C[C@@H]1O` [1α,25-dihydroxyvitamin D3] as the molecule, how does the “levels of 24-hydroxylase mRNA” value (24-hydroxylase mRNA) read?
The value was “significant increase”.

B1: parathyroid hormone (peptide, UniProt P01270 32-115, looked up)
Parathyroid hormone: SVSEIQLMHNLGKHLNSMERVEWLRKKLQDVHNFVALGAPLAPRDAGSQRPRKKEDNVLVESHEKSLGEADKADVNVLTKAKSQ
modifications: Parathyroid hormone
notes: parathyroid hormone, comparator inducer of 1α-hydroxylase mRNA acting via a PKA-dependent pathway
With B1 as the molecule, how does the “induction of the expression of 1α-hydroxylase mRNA” value (1α-hydroxylase mRNA) read?
The value was “induce”.

— patent publication US20030186891A1, “Compositions and methods for treatment of vitamin D deficiency” (priority 2002, published 2003)
